Data set [1] concerns the target T1, Edema Factor (EF) (Bacillus anthracis, UniProt P40136). Put plainly: cell-based. Type of data set: cell-based.
The subject of data set [2] is enterotoxigenic E.coli (ETEC). Format: in vivo. To be noted: assuming 5 ml serum/mouse.
Data set [3] concerns tester strain TAMix.
In data set [4] the test system is human GADD45α gene-GFP reporter in TK6 cells (GenM-T01, GenM-C01).
Data set [5] deals with RAW 264.7 cells. To be noted: added alone, at the highest dose tested.
Data set [6] has as its target T1, Edema Factor (EF). The note with it: read-out: IC50, inhibition of cAMP production induced by edema toxin; cited from earlier work.
Data set [7] relates to enterotoxigenic E.coli (ETEC). To be noted: cited from earlier work.
Data set [8] relates to cholera toxin. The note with it: cited from earlier work.
The conditions of data set [9]: in vivo; cited from earlier work.

This is an account of results in PMC3251925 (Bioorganic & medicinal chemistry, 2011).

pIC50: −log10 of the molar value. Where two headings read alike, the source gives them in different places.

T1 sequence (P40136 whole entry, looked up): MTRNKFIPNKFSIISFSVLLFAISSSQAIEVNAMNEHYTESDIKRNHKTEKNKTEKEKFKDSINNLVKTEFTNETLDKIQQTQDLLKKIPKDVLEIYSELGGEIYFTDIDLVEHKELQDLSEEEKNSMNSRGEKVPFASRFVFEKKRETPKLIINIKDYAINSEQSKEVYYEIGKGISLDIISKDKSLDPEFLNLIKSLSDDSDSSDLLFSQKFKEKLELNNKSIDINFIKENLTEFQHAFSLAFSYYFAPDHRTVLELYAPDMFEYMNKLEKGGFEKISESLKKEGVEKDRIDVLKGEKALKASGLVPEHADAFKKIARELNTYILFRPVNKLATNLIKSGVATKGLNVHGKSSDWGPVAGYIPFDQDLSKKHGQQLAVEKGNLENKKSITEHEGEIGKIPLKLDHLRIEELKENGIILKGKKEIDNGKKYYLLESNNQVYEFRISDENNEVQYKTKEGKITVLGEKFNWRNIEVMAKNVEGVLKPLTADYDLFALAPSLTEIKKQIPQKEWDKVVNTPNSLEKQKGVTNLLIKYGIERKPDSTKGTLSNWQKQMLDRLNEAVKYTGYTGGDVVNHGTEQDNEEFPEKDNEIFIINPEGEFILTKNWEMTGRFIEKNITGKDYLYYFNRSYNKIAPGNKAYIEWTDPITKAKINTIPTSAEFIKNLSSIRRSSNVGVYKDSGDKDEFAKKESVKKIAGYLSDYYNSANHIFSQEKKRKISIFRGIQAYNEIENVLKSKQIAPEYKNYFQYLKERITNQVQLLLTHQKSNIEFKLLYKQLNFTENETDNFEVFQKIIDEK

The term IC50 denotes the concentration that inhibits the measured activity by half. With “3-[(Biphenyl-3-carbonyl)-amino]-benzoic acid [Compound 2]”, the IC50 in [1] (read-out: IC50 (μM) Assay 1) worked out at 19 µM.

By pIC50 is commonly meant the negative decadic logarithm of the IC50, by convention in mol/L. In data set [1], `O=C(O)c1cccc(NC(=O)c2cccc3c2C(=O)c2ccccc2-3)c1` [Compound 1, 3-(9-oxo-9H-fluorene-1-carboxamido)benzoic acid] had a pIC50 of 4.91 to 5.79. Further, in data set [2], the “Active dose in mice expressed as concentration” value was “about 3 μg/ml”. Further, in data set [3], the Mutagenicity entry was “non-mutagenic” and the Number of revertants result is on record as “doubling”. In data set [4], the “Concentration determined to be cytotoxic” value worked out at 62.5 µg/mL and the “Concentration with genotoxic activity (positive response)” value amounted to 62.5 µg/mL. The “Obvious toxicity to cultured cells” value in data set [5] is “no obvious toxic effect”. Further, the pIC50 in [6] was 5.05 to 5.70. Further, the “Effective dose to reduce diarrhea in mice (from ETEC)” value in [7] (intraperitoneally or by gavage, per mouse) is 7.5 to 15 µg. Besides, the “Diarrhea caused by ETEC” value in data set [7] (mouse, oral gavage dose of 15 μg/mouse) was “reduced diarrhea”. Further, the “Levels of bacteria in the colons of infected and treated mice” value in [7] (versus mice that did not receive the compound) is given as “much lower”. In data set [8], the “Inhibition of cholera toxin” value is given as “inhibits cholera toxin”. Besides, the “Obvious toxic effect in mouse studies” value in [9] is “no obvious toxic effect”.

For the compound `O=C(Nc1ccccc1)c1cccc2c1C(=O)c1ccccc1-2` [Compound 4, 9-oxo-N-phenyl-9H-fluorene-1-carboxamide], the “EF inhibitory activity, in words” value in data set [1] was “relatively inactive”.

For `Nc1ccc(NC(=O)c2cccc3c2C(=O)c2ccccc2-3)c(C(=O)O)c1` [Compound 6, 5-Amino-2-(9-oxo-9H-fluorene-1-carboxamido)benzoic acid], the “EF inhibitory activity, in words” value in [1] is “inactive”.

Consider `O=C(O)c1cc(NC(=O)c2cccc3c2C(=O)c2ccccc2-3)ccc1O` [Compound 9, 2-Hydroxy-5-(9-oxo-9H-fluorene-1-carboxamido)benzoic acid], for which the “EF inhibitory activity, in words” value in [1] was “inactive”.

Consider `Nc1cc(NC(=O)c2cccc3c2C(=O)c2ccccc2-3)cc(C(=O)O)c1` [Compound 10, 3-amino-5-(9-oxo-9H-fluorene-1-carboxamido)benzoic acid], for which, in [1], the pIC50 was 5.89. Further, the “Obvious toxicity to cultured cells” value in data set [5] is given as “neither caused obvious toxicity”.

As for `COC(=O)c1cc(NC(=O)c2cccc3c2C(=O)c2ccccc2-3)ccc1O` [Compound 14, Methyl 2-hydroxy-5-(9-oxo-9H-fluorene-1-carboxamido)benzoate], in [1], the “EF inhibitory activity, in words” value is “completely inactive” and the pIC50 was 3.60.

Take `CN(C)c1cccc(NC(=O)c2cccc3c2C(=O)c2ccccc2-3)c1` [Compound 19, N-(3-(dimethylamino)phenyl)-9-oxo-9H-fluorene-1-carboxamide]: in [5], the “Obvious toxicity to cultured cells” value is “neither caused obvious toxicity”.
